Measurements reported in patent US20170314007A1, “MEDICAMENT DESIGN POCKET OF ORNITHINE DECARBOXYLASE AND APPLICATION OF MEDICAMENT DESIGN POCKET” (CHINA THREE GORGES UNIVERSITY, priority 2014, published 2017).

Target: T1, human ODC (Homo sapiens, UniProt P11926)
T1 construct: His tag (from pET28a); made in house; host or cells: Escherichia coli BL21
T1 sequence (P11926 1-461): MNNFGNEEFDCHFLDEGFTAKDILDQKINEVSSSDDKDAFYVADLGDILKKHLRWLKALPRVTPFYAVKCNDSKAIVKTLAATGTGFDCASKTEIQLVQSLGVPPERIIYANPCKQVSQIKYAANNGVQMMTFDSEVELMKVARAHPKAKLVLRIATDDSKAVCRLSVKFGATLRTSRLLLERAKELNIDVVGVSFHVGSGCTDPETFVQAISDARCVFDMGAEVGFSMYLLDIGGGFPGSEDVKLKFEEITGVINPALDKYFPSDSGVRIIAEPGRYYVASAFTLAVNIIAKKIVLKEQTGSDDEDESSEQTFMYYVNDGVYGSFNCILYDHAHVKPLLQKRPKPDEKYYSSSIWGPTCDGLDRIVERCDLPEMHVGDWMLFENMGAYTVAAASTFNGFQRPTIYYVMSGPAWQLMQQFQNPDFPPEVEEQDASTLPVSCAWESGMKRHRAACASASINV
Test: Detection of inhibitory activity of inhibitor for human ODC protein (absorbance at 426 nm, ODC inhibition ratio)
Assay type: biochemical
Conditions: for inhibitory capacity on human ODC compared with DFMO: 1 mM of the medicament, comparison of histograms with DFMO inhibitor
Procedure: 400 uL substrate reaction mixture and 50 ug ODC protein are added to EP tube, mixed evenly, and the EP tube is placed in 37° C. water bath for 30 min; 400 uL 10% TDA is added to terminate the reaction, centrifuged 5 min at 5000 rpm at room temperature, then 100 uL supernatant is fetched and mixed with 200 uL of 4 mol/L NaOH, 400 uL of n-amyl alcohol is added to mix well, centrifuged 5min at 2000 rpm, then 200 uL of the supernatant is transferred to a new EP tube, and 200 uL of 0.1 mol/L sodium tetraborate (pH 8.0) is added to mix evenly, and 200 uL of 10 mmol/L trinitrobenzene sulfonic acid is added to mix fully, and then 400 uL DMSO is added to fix fully for 1 min, centrifuged 5 min at 3000 rpm; finally the supernatant is fetched to 96-well plate and its absorbance at 426 nm is detected by a microplate reader, to get the OD value with out adding […];
According to the method described in step 4), after adding 400 μL substrate reaction mixture, the ODC inhibitor is added immediately, and subsequent procedures are the same as the step 4);
The ODC inhibition ratio is calculated according to the following formula;
Control difference=the mean OD value of the control group adding the inhibitor−the mean OD value of the control group without adding inhibitor, of which, the inhibitor added in step 5) in the control group is DFMO inhibitor;
Experimental difference= the mean OD value of the experiment group adding the inhibitor−the mean OD value of the experiment group without adding inhibitor.
ODC inhibition ratio=[(control difference-experimental difference)/control difference]×100%.
The substrate reaction mixture in step 4): dissolve 17.57 ul β-mercaptoethanol, 55.84mg of 1.5 mM EDTA disodium salt, 75 nM PLP stock solution and 2 mM ornithine hydrochloride in 150 mM PBS (pH 7.1).
400 uL substrate reaction mixture (17.57 ul of β-mercaptoethanol, 55.84 mg of 1.5 mM EDTA disodium salt, 75 nM PLP stock solution, 2 mM ornithine hydrochloride are dissolved in 150 mM PBS (pH 7.1)) and 50 ug ODC protein are added to a 1.5 mL of EP tube, mixed evenly, and the EP tube is placed in 37° C water bath for 30 min; 400 uL 10% TDA is added to terminate the reaction, centrifuged 5 min at 5000 rpm at room temperature, then 100 uL supernatant is fetched and mixed with 200 uL of 4 mol/L NaOH, 400 uL of n-amyl alcohol is added to mix well, centrifuged 5 min at 2000 rpm then 200 uL of the supernatant is transferred to a new EP tube, and 200 uL of sodium tetraborate (0.1 mol/L, pH 8.0) is added to mix evenly, and 200 uL of 10 mmol/L trinitrobenzene sulfonic acid is added to mix fully, and then 400 uL DMSO is added to fix fully for 1 min, centrifuged 5 min at 3000 rpm, finally the supernatant is fetched to 96-well plate and its absorbance at 426 nm is detected by a microplate reader. […]

Row | inhibitory capacity on human ODC compared with DFMO | Compound | other results
1 | – | N#Cc1ccc(C2Nc3cccc4cccc(c34)N2)cc1 | inhibitory activity on human ODC (concentration range 1 nM-5 mM, histogram FIG. 5): has the ability to inhibit human ODC activity within the range of 1 nM-5 mM, and the higher the concentration, the stronger tire inhibitory ability
2 | – | CN(C)c1ccc(/C=N/Nc2nc(N)nc(N)n2)cc1 [4-(dimethylamino)-benzaldehyde-(4,6-diamino-1,3,5) triazine] | inhibitory activity on human ODC (concentration range 1 nM-1 mM, histogram FIG. 9, compared with DFMO): has inhibitory effect on human ODC activity within the concentration range of 1 nM-1 mM
3 | equivalent to that of 2.5 mM DFMO | CCOC(=O)c1cccc(NC(=O)c2ccccc2)c1 [D17, ethyl-3-(benzoylamino) methyl benzoate] | –
4 | equivalent to that of 2.5 mM DFMO | COc1ccc(C(=O)C[n+]2ccccc2/C=N/[O-])cc1 [D19, 2-[(hydroxyimino)methyl]-1-[2-(4-methoxyphenyl)-2-oxoethyl] pyridinium] | –
